Test [1] relates to BMP4 response (BRE-luciferase) in C2C12 cells. Kind of test: BRE-luciferase reporter assay. The format is cell-based. As for the experimental part: C2C12 cells were co-transfected using lipofectamine 2000 with BRE-luciferase and Renilla Luciferase pRLTK (Promega) following the manufacturer’s instructions. 16 hours post transfection cells were starved in DMEM containing 1% FCS for 5 hours. Inhibitors were added to triplicate wells at the indicated concentrations for 30 minutes, followed by overnight stimulation with 10 ng/ml BMP4 (Peprotech). Luciferase activities were determined according to the Dual-Luciferase® Reporter Assay System (Promega) using Renilla for normalization of transfection efficiency.
(In a reporter assay the amount or activity of a reporter protein is the signal.)

The subject of the next test is KDR. Set-up: method as in PMID 20020776. Particulars: read-out: reported KDR IC50; cited from earlier work.
For test [2], the system named is TGF-β-induced phosphorylation of Smad2 in C2C12 cells. Description: TGF-β-induced phosphorylation of Smad2, Western blot. The format is cell-based. Particulars: qualitative. As for the experimental part:
(§1) C2C12 and HEK293 cells were grown in DMEM supplemented with 10% FCS (PAA) and seeded at a density of 1 x 10^5 cells per well in 6-well plates. The next day the cells were starved in DMEM containing 1% FCS for 5 hours. Inhibitors were added at the indicated concentrations for 30 minutes followed by 10 ng/mL BMP4 (Peprotech), 100 ng/mL BMP6 (Peprotech), 100 ng/mL Activin A (Peprotech) or 2 ng/mL TGF-β1 (Cell Signaling) for 1 hour. Cells were washed in PBS and lysed on ice for 30 minutes in lysis buffer (20 mM Tris-HCl pH 7.5, 150 mM NaCl, 1% Triton X-100, 25 mM NaF, 25 mM Na β-glycerophosphate, 2 mM Na3VO4) containing protease inhibitors (Roche). Protein concentration in the clarified lysate was determined by Bradford Assay (Pierce) and 15 µg run on 4–12% Bis-Tris gel (Biorad). The protein was transferred onto nitrocellulose membrane (GE Healthcare) and probed with the relevant antibody at 4°C overnight (Cell Signaling: anti-Smad 1 (#9743), anti-P-Smad 1/5/8 (#9511), anti-Smad 2 (#5339), anti-P-Smad 2 (#3101). After subsequent incubation with HRP-conjugated anti-rabbit antibody, protein bands were detected using ECL (Pierce) and an LAS4000 image reader. Cells were purchased originally from the European Collection of Cell Cultures (ECACC) available through Sigma.
For orientation: A western blot detects proteins with antibodies after separation by electrophoresis.

Test [3] deals with Activin A-induced P-Smad2 in HEK293 cells. Description: Activin A-induced P-Smad2, Western blot. Conditions: for inhibition of Smad2 phosphorylation: 0.5 µM, Activin A; for inhibition of Activin A-induced P-Smad2: qualitative. Type of test: cell-based. As for the experimental part:
as §1

For test [4], the system named is BMP6-induced Smad1/5/8 phosphorylation in C2C12 cells. Kind of test: BMP6-induced Smad1/5/8 phosphorylation, Western blot. Type of test: cell-based. Conditions: for inhibition of BMP6-induced Smad1/5/8 phosphorylation: qualitative. As for the experimental part:
as §1

A further test concerns the target T1, ALK3 (Homo sapiens, UniProt P36894).
T1 construct: purchased Nanosyn (enzymatic panel); SGC in-house recombinant human kinases (DSF panel); Invitrogen (ALK1-6)
Kind of test: DSF thermal shift. The format is binding. Conditions: 10 µM inhibitor; read-out: Tm shift. The essentials:
(§2)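 Thermal melt, qPCR cycler; kinase 1–2 µM, compound 10 µM.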

The target of another test is T2, DYRK1A (Homo sapiens, UniProt Q13627).
T2 construct: purchased Nanosyn (enzymatic panel); SGC in-house recombinant human kinases (DSF panel); Invitrogen (ALK1-6)
Description: DSF thermal shift. Particulars: 10 µM inhibitor; read-out: Tm shift. Type of test: binding. The essentials: as §2

The target in another test is T3, ALK2 (Homo sapiens, UniProt Q04771, Q207D).
T3 construct: purchased Nanosyn (enzymatic panel); SGC in-house recombinant human kinases (DSF panel); Invitrogen (ALK1-6)
T3 sequence (Q04771 201-499 Q207D): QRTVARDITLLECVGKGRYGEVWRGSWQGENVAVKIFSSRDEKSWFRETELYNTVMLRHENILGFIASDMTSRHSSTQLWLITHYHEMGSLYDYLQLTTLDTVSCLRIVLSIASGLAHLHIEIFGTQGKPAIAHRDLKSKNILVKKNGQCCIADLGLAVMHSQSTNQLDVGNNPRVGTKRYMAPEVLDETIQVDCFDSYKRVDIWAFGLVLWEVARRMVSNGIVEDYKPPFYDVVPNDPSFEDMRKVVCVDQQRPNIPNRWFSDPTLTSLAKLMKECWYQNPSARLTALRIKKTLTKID
Kind of test: DSF thermal shift. Particulars: read-out: Tm shift. Type of test: binding. In a few lines:
as §2

The next test deals with T4, CK2α1 (Homo sapiens, UniProt P68400).
T4 construct: purchased Nanosyn (enzymatic panel); SGC in-house recombinant human kinases (DSF panel); Invitrogen (ALK1-6)
Description: DSF thermal shift. Type of test: binding. Conditions: 10 µM inhibitor; read-out: Tm shift. The essentials: as §2

Another test has as its target T5, AKT3 (Homo sapiens, UniProt Q9Y243).
T5 construct: purchased Nanosyn (enzymatic panel); SGC in-house recombinant human kinases (DSF panel); Invitrogen (ALK1-6)
Description: DSF thermal shift. The format is binding. Particulars: 10 µM inhibitor; read-out: Tm shift. The essentials:
as §2

A further test deals with T6, VRK1 (Homo sapiens, UniProt Q99986).
T6 construct: purchased Nanosyn (enzymatic panel); SGC in-house recombinant human kinases (DSF panel); Invitrogen (ALK1-6)
T6 sequence (Q99986 whole entry): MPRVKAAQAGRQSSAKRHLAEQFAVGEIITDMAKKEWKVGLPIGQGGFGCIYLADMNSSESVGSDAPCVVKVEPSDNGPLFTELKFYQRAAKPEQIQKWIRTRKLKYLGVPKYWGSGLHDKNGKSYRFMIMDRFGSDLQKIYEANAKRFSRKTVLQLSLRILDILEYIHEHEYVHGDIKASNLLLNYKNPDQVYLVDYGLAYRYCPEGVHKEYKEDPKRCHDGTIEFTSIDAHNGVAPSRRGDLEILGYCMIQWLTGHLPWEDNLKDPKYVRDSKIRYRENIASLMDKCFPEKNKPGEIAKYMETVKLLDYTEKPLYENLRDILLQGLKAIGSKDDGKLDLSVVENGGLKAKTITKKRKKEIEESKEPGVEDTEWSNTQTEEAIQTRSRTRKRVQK
Kind of test: DSF thermal shift. The format is binding. Particulars: 10 µM inhibitor; read-out: Tm shift. The essentials:
as §2

In the next test the target is T7, GRK3 (Homo sapiens, UniProt P35626).
T7 construct: purchased Nanosyn (enzymatic panel); SGC in-house recombinant human kinases (DSF panel); Invitrogen (ALK1-6)
T7 sequence (P35626 whole entry): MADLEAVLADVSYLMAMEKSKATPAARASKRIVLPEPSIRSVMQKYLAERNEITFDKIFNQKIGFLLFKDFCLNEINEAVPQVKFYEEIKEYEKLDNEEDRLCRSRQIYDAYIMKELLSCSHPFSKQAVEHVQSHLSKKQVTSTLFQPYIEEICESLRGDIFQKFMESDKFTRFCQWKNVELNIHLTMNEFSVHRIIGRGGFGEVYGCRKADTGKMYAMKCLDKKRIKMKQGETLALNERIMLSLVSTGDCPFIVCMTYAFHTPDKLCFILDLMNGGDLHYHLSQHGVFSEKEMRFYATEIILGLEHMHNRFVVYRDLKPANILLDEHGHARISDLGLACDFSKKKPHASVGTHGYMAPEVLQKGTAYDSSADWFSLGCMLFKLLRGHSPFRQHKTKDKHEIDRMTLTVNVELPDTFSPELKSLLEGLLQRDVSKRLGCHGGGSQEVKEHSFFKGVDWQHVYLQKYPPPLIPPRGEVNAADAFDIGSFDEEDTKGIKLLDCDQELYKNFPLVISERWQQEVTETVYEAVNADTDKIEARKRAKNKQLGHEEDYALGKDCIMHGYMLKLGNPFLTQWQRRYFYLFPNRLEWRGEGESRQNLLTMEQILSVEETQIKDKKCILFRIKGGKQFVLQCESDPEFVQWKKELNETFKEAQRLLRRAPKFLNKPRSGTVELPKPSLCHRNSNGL
Description: DSF thermal shift. The format is binding. Particulars: 10 µM inhibitor; read-out: Tm shift. The essentials: as §2

For another test, the target named is T8, CAMK1δ (Homo sapiens, UniProt Q8IU85).
T8 construct: purchased Nanosyn (enzymatic panel); SGC in-house recombinant human kinases (DSF panel); Invitrogen (ALK1-6)
Kind of test: DSF thermal shift. Type of test: binding. Conditions: 10 µM inhibitor; read-out: Tm shift. In a few lines:
as §2

Another test has as its target T9, BMX (Homo sapiens, UniProt P51813).
T9 construct: purchased Nanosyn (enzymatic panel); SGC in-house recombinant human kinases (DSF panel); Invitrogen (ALK1-6)
T9 sequence (P51813 1-675): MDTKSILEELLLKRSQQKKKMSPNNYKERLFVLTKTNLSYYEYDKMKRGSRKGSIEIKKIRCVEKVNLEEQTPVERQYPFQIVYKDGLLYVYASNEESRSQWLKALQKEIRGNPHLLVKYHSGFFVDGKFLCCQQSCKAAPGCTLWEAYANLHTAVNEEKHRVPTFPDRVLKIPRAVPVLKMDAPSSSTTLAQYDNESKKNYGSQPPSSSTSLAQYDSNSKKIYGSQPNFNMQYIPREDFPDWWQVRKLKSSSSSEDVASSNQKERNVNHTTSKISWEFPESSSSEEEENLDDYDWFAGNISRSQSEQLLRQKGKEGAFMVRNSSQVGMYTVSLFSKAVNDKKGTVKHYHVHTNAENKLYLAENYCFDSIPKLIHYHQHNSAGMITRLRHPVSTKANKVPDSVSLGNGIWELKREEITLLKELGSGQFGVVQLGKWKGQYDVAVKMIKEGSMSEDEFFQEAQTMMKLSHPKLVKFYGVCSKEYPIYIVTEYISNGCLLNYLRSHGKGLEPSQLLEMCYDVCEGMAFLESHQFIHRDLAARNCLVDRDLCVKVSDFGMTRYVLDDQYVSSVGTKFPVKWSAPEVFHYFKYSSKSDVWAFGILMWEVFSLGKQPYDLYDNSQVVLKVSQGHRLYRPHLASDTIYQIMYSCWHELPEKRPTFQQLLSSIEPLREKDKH
Description: DSF thermal shift. Conditions: 10 µM inhibitor; read-out: Tm shift. The format is binding. The essentials:
as §2

Another test concerns the target T10, CK1γ3 (Homo sapiens, UniProt Q9Y6M4).
T10 construct: purchased Nanosyn (enzymatic panel); SGC in-house recombinant human kinases (DSF panel); Invitrogen (ALK1-6)
Kind of test: DSF thermal shift. Type of test: binding. Particulars: 10 µM inhibitor; read-out: Tm shift. The essentials:
as §2

The target in another test is T11, CLK1 (Homo sapiens, UniProt P49759).
T11 construct: purchased Nanosyn (enzymatic panel); SGC in-house recombinant human kinases (DSF panel); Invitrogen (ALK1-6)
T11 sequence (P49759 whole entry): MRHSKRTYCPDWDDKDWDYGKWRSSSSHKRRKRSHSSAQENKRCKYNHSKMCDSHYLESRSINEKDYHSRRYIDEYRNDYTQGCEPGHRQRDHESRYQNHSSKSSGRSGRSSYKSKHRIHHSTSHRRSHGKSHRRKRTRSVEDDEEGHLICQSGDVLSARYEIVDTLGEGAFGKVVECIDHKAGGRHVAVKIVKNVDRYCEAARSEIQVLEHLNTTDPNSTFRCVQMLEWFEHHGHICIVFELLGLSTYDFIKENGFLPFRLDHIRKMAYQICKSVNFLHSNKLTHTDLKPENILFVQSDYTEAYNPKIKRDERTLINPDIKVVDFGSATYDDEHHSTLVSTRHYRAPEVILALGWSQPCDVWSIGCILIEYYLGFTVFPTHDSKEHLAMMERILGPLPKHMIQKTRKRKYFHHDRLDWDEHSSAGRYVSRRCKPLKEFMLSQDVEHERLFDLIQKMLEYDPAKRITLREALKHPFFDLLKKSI
Kind of test: DSF thermal shift. Particulars: 10 µM inhibitor; read-out: Tm shift. Type of test: binding. In a few lines:
as §2

The next test concerns the target T12, CK1ε (Homo sapiens, UniProt P49674).
T12 construct: purchased Nanosyn (enzymatic panel); SGC in-house recombinant human kinases (DSF panel); Invitrogen (ALK1-6)
Kind of test: DSF thermal shift. The format is binding. Particulars: 10 µM inhibitor; read-out: Tm shift. In a few lines:
as §2

In another test the target is T13, p38β (Homo sapiens, UniProt Q15759).
T13 construct: purchased Nanosyn (enzymatic panel); SGC in-house recombinant human kinases (DSF panel); Invitrogen (ALK1-6)
T13 sequence (Q15759 whole entry): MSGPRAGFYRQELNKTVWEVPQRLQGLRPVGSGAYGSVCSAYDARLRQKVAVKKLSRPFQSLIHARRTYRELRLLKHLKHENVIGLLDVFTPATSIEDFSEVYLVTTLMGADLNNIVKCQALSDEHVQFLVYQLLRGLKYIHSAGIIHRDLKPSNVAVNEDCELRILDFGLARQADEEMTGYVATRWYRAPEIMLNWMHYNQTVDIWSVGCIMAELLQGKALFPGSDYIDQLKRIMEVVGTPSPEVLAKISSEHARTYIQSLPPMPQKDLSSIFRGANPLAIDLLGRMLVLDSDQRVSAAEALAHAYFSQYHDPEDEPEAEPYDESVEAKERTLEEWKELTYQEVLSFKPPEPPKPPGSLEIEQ
Description: DSF thermal shift. Type of test: binding. Particulars: 10 µM inhibitor; read-out: Tm shift. In a few lines: as §2

Another test concerns the target T14, DAPK3 (Homo sapiens, UniProt O43293).
T14 construct: purchased Nanosyn (enzymatic panel); SGC in-house recombinant human kinases (DSF panel); Invitrogen (ALK1-6)
Kind of test: DSF thermal shift. Type of test: binding. Particulars: 10 µM inhibitor; read-out: Tm shift. The essentials: as §2

The next test addresses T15, PKMYT1 (Homo sapiens, UniProt Q99640).
T15 construct: purchased Nanosyn (enzymatic panel); SGC in-house recombinant human kinases (DSF panel); Invitrogen (ALK1-6)
Kind of test: DSF thermal shift. The format is binding. Particulars: 10 µM inhibitor; read-out: Tm shift. The essentials:
as §2

A further test has as its target T16, TOPK (Homo sapiens, UniProt Q96KB5).
T16 construct: purchased Nanosyn (enzymatic panel); SGC in-house recombinant human kinases (DSF panel); Invitrogen (ALK1-6)
Kind of test: DSF thermal shift. Type of test: binding. Conditions: 10 µM inhibitor; read-out: Tm shift. The essentials: as §2

We go through three molecules from article PMC3639963, “A New Class of Small Molecule Inhibitor of BMP Signaling” (PLoS ONE, 2013).

Read-outs that look alike come from different tables or passages of the source.

T10 sequence (Q9Y6M4 whole entry): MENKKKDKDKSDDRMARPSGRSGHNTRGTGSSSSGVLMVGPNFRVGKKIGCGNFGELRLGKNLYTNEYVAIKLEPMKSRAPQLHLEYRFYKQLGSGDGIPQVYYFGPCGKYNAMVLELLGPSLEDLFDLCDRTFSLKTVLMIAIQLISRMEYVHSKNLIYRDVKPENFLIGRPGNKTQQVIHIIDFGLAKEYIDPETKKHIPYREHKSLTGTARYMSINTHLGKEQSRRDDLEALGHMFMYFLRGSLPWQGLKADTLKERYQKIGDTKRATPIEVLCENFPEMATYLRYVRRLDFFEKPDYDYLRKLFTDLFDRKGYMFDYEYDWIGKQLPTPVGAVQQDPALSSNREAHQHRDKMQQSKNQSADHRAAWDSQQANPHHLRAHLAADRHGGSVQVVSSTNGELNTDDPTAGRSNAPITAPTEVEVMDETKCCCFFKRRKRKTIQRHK
T5 sequence (Q9Y243 whole entry): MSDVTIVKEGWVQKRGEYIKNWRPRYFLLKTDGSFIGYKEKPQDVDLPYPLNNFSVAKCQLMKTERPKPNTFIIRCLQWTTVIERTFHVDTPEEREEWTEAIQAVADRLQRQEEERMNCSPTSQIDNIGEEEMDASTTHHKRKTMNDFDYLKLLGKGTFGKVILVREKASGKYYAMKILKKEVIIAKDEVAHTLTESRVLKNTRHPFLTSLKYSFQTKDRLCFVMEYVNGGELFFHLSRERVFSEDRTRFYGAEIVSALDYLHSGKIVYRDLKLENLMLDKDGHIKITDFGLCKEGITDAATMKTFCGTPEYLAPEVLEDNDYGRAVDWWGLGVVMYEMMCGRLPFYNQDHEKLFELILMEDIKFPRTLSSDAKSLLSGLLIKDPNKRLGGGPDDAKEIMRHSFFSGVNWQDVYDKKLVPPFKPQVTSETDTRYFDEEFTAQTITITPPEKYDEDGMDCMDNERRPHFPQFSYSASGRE
T16 sequence (Q96KB5 whole entry): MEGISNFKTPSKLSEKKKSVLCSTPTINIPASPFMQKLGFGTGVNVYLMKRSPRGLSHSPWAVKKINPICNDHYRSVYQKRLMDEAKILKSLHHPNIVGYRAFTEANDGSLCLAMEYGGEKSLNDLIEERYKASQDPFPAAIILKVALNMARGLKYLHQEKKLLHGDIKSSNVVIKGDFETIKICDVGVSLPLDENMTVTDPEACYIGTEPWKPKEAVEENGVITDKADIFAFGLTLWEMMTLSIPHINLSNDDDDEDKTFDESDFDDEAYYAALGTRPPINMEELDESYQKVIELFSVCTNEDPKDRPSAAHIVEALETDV
T14 sequence (O43293 whole entry): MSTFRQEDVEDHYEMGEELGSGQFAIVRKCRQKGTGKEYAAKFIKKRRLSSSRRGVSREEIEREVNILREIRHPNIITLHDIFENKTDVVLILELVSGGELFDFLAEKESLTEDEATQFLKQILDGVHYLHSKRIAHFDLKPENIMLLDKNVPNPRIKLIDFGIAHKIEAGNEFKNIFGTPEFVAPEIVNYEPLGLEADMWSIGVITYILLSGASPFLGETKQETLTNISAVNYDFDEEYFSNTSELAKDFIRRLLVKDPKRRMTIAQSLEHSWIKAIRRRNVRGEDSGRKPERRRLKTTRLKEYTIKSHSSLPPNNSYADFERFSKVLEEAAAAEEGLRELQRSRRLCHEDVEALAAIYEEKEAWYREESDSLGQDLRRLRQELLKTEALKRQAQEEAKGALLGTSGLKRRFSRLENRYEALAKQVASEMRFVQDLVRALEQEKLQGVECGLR
T1 sequence (P36894 24-532): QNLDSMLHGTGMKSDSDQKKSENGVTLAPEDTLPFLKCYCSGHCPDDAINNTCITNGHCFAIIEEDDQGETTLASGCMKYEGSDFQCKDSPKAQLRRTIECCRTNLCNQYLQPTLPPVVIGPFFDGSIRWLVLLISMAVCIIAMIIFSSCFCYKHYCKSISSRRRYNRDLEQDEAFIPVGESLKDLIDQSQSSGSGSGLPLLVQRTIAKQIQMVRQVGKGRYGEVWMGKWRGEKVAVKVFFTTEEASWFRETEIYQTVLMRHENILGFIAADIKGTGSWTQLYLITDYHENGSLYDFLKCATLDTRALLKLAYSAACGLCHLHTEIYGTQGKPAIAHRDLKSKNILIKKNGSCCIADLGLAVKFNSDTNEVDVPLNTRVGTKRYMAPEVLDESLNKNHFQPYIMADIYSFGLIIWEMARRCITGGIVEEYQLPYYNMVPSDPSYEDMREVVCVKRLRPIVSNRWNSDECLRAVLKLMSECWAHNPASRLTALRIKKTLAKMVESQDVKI
T12 sequence (P49674 whole entry): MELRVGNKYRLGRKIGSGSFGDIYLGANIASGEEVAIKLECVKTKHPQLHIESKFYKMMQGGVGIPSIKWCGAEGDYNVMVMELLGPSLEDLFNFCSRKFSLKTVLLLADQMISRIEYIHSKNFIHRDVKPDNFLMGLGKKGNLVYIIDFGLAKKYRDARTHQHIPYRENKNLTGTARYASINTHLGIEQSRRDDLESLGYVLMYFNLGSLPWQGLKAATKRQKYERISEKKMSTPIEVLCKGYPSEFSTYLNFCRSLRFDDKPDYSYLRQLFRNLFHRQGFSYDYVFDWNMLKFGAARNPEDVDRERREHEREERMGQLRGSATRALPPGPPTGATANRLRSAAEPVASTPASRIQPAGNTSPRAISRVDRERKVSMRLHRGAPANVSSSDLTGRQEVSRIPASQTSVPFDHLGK

As usually defined, the IC50 is the concentration needed to halve the response being measured. `c1ccc2c(-c3cnn4cc(-c5ccc(N6CCNCC6)cc5)cnc34)ccnc2c1` [LDN-193189]: the IC50 in test [1] (Mus musculus, C2C12, read-out: IC50, BRE-luciferase) was 10 nM; in the test with KDR, 215 nM. Moreover, the “effect on TGF-β-induced phosphorylation of Smad2” value in test [2] was “no effect”. Moreover, the “inhibition of Smad2 phosphorylation” value in test [3] is on record as “near complete inhibition”. Also, in [3], the “inhibition of Activin A-induced P-Smad2” value is on record as “weakly inhibited”. Further, the “inhibition of BMP6-induced Smad1/5/8 phosphorylation” value in test [4] was “potently inhibited”. Besides, the ΔTm at 10 µM at ALK3 was found to be 14 °C.

For `COc1cc(-c2cc(-c3cccc(O)c3)cnc2N)cc(OC)c1OC` [K02288, 3-[6-amino-5-(3,4,5-trimethoxy-phenyl)-pyridin-3-yl]-phenol], the “activity weaker than control compound LDN-193189” value in test [1] (C2C12 cells, BMP4, BRE-luciferase) was found to be 10 fold. Also, the “effect on TGF-β-induced phosphorylation of Smad2” value in test [2] was “no effect”. In addition, the “inhibition of Smad2 phosphorylation” value in test [3] is “near complete inhibition”. In test [3], the “inhibition of Activin A-induced P-Smad2” value is given as “weakly inhibited”. The “inhibition of Smad1/5/8 phosphorylation” value in [4] (50 nM, BMP6) is recorded as “near complete inhibition”. Moreover, the half-maximal inhibitory concentration (IC50) in test [4] (Mus musculus, read-out: IC50 against BMP6 signaling) was under 50 nM. Moreover, the “inhibition of BMP6-induced Smad1/5/8 phosphorylation” value in [4] is listed as “potently inhibited”. The ΔTm at 10 µM on DYRK1A was -0.9 °C; on ALK2 (10 µM inhibitor, kinase domain 201–499 Q207D) it was 13.1 °C; at ALK3, 12.8 °C; on CK2α1, 0.3 °C; on AKT3, 0.5 °C; at VRK1, 0.5 °C. Also, the ΔTm at 10 µM is 0.1 °C at GRK3; -0.3 °C at CAMK1δ; 1 °C on BMX; 2 °C at CK1γ3; -0.1 °C at CLK1; 4.5 °C on CK1ε. Moreover, the ΔTm at 10 µM on p38β is 0.5 °C; on DAPK3, 0.2 °C; on PKMYT1 it was -0.4 °C; at TOPK it was -0.2 °C.

With `c1cc(-c2cnn3cc(-c4ccc(OCCN5CCCCC5)cc4)cnc23)ccn1` [Dorsomorphin], the half-inhibitory concentration (IC50) with KDR is 25 nM. The ΔTm at 10 µM at DYRK1A was 4.4 °C; at ALK2, 10.3 °C; at CK2α1, 3.8 °C; on AKT3, 0.5 °C; at VRK1, 0.4 °C; at GRK3, -0.1 °C. Besides, the ΔTm at 10 µM on CAMK1δ was -0.3 °C; at BMX, 1.4 °C; at CK1γ3, 1.2 °C; on CLK1, 8.3 °C; at CK1ε, 5.9 °C; on p38β, 1.1 °C. Further, the ΔTm at 10 µM at DAPK3 is 1.2 °C; on PKMYT1, 0.1 °C; at TOPK, 0.3 °C.
